Laboratory results as given in patent US11098053B2, “Enhanced osteogenic activity of daidzein analogs on human mesenchymal stem cells” (THE ADMINISTRATORS OF THE TULANE EDUCATIONAL FUND, priority 2013, dated 2021).

Legend:
[1] = system: Human bone marrow derived mesenchymal stem cells (MSCs); assay: Osteogenic differentiation of MSCs (Alizarin Red calcium deposition); details: for osteogenic activity (structure-activity summary, in words): donor MSCs; for osteogenic activity (structure-activity summary, in words) / osteogenesis averaged over all three donors, relative to vehicle treated MSCs: 1 μM; for IC50: read-out: IC50 averaged among the three donors, mean of three donors; for osteogenic differentiation of MSCs, fold relative to vehicle treated MSCs: daidzein 1 μM, genistein 1 μM, Alizarin Red
BMSCs [2] = system: BMSCs
BMSCs [3] = assay: Osteogenic differentiation of BMSCs (alizarin red); details: 14 days; for osteogenic potential of BMSCs relative to vehicle, with fulvestrant: 1 μM + 100 nM fulvestrant; for osteogenic potential of BMSCs relative to vehicle, with fulvestrant / osteogenic potential of BMSCs relative to vehicle, inhibitor study, without fulvestrant: FIG. 12; for osteogenic differentiation (calcium deposition), fold relative to vehicle-treated BMSCs: n=6 donors; for osteogenic differentiation (calcium deposition), fold relative to vehicle-treated BMSCs / cytotoxicity of BMSCs by bright field microscopy, compared to vehicle: estrogen 10 nM, others 1 μM
ASCs = assay: Osteogenic differentiation of ASCs (alizarin red); details: 14 days; for osteogenic potential of ASCs relative to vehicle, with fulvestrant: 1 μM + 100 nM fulvestrant; for osteogenic potential of ASCs relative to vehicle, with fulvestrant / osteogenic potential of ASCs relative to vehicle, inhibitor study, without fulvestrant: FIG. 12; for osteogenic differentiation (calcium deposition), fold relative to vehicle-treated ASCs: n=6 donors; for osteogenic differentiation (calcium deposition), fold relative to vehicle-treated ASCs / cytotoxicity of ASCs by bright field microscopy, compared to vehicle: estrogen 10 nM, others 1 μM
[4] = system: MSCs (Sp7, ALP, OP, IGF1 transcripts); assay: qRT-PCR of osteogenic transcription factors in MSCs; type: cell-based, human; details: pooled MSCs, 1 μM, 14 days
Text: . […] The following primer set sequence for was used: Sp7 forward 5′-CCAGTGTCTACACCTCTC-3′ (SEQ ID NO: 1), reverse 5′-ATGGAGTAGGAGTGTTGC-3′ (SEQ ID NO: 2); IGF-1 forward 5′-CTGTGATCTAAGGAGGCTG-3′ (SEQ ID NO: 3), reverse 5′-[…]-3′ (SEQ ID NO: 4); ALP forward 5′-[…]-3′ (SEQ ID NO: 5), reverse 5′-[…]-3′ (SEQ ID NO: 6); osteopontin forward 5′-[…]-3′ (SEQ ID NO: 7), reverse 5′-[…]-3′ (SEQ ID NO: 8). β-actin forward 5′-[…]-3′ (SEQ ID NO: 9), reverse 3′-[…]-5′ (SEQ ID NO: 10) was used as an internal reference point. At the completion of the reaction, ΔΔCt was calculated to quantify mRNA expression.

[5] = screen, MSCs from one donor (Donor 1), analogs and daidzein 1 μM, estrogen 10 nM, 14 days
[6] = Donor 1, estrogen 10 nM, 14 days
[7] = Donor 2, estrogen 10 nM, 14 days
[8] = Donor 3, estrogen 10 nM, 14 days

Row | melting point | SMILES | osteogenic activity (structure-activity summary, in words) ([1]; 14 days) | osteogenic potential of BMSCs relative to vehicle, with fulvestrant (BMSCs [3]) | osteogenic potential of BMSCs relative to vehicle, inhibitor study, without fulvestrant (BMSCs [3]; 1 μM) | osteogenic differentiation (calcium deposition), fold relative to vehicle-treated BMSCs (BMSCs [3]) | osteogenic potential of ASCs relative to vehicle, with fulvestrant (ASCs) | osteogenic potential of ASCs relative to vehicle, inhibitor study, without fulvestrant (ASCs; 1 μM) | osteogenic differentiation (calcium deposition), fold relative to vehicle-treated ASCs (ASCs) | induction category of osteogenic differentiation (no, low, high induction) [1, 5] | osteogenesis averaged over all three donors, relative to vehicle treated MSCs ([1]; 14 days) | other results
1 | 228 to 230 °C | CC1(C)C=Cc2c(ccc3c(=O)c(-c4ccc(B5OC(C)(C)C(C)(C)O5)cc4)coc23)O1 [compound 8, 8,8-dimethyl-3-(4-(4,4,5,5-tetramethyl-1,3,2-dioxaborolan-2-yl)phenyl)pyrano[2,3-f]chromen-4(8H)-one] | – | – | – | – | – | – | – | – | – | –
2 | 262 to 264 °C | CC1(C)C=Cc2c(ccc3c(=O)c(-c4ccc(O)cc4)coc23)O1 [compound 3, 3-(4-Hydroxyphenyl)-8,8-dimethyl-8H-pyrano[2,3f]-chromen-4-one] | did not exhibit any osteogenic activity | – | – | – | – | – | – | – | – | –
3 | – | C=CCOc1ccc2c(=O)c(-c3ccc(O)cc3)coc2c1 [2l, 7-(Allyloxy)-3-(4-hydroxyphenyl)-4H-chromen-4-one] | marked enhancement | 1.5 fold | 2.0 fold | 1.9 fold | 1.7 fold | 2.4 fold | 2.2 fold | high inducers | 2.0±0.18 | cytotoxicity at higher dosages (BMSCs [2]): nor lead to cytotoxicity; differentiation at day 7 [1]: enhanced differentiation at day 7; IC50 ([1]; 14 days): 138 nM
4 | – | O=c1c(-c2ccc(O)cc2)coc2cc(OC3CCCC3)ccc12 [2g, 7-Cyclopentyloxy-3-(4-hydroxyphenyl)-4H-chromen-4-one] | modest osteogenic activity | 0.8 fold | 1.9 fold | 1.6 fold | 0.9 fold | 2.0 fold | 2.0 fold | – | 2.0±0.64 | cytotoxicity at higher dosages (BMSCs [2]): nor lead to cytotoxicity
5 | – | CC(C)Oc1ccc2c(=O)c(-c3ccc(O)cc3)coc2c1 [2c, 3-(4-Hydroxyphenyl)-7-isopropoxy-4H-chromen-4-one] | marked enhancement | – | – | 1.6 fold | – | – | 1.7 fold | high inducers | 2.0±0.41 | ALP expression relative to cells treated with vehicle in ODM [4]: 2.45±0.80; IGF1 expression relative to cells treated with vehicle in ODM [4]: 26.96±9.19; OP expression relative to cells treated with vehicle in ODM [4]: 2.68±0.11; Sp7 expression relative to cells treated with vehicle in ODM [4]: 20.08±4.81; differentiation at day 7 [1]: enhanced differentiation at day 7; IC50 ([1]; 14 days): 58.2 nM
6 | 228 to 230 °C | C#CCOc1ccc2c(=O)c(-c3ccc(O)cc3)coc2c1 [compound 6, 3-(4-Hydroxyphenyl)-7-(prop-2-yn-1-yloxy)-4H-chromen-4-one] | only modest osteogenic potential | – | – | – | – | – | – | – | – | –
7 | – | O=c1c(-c2ccc(O)cc2)coc2cc(O)cc(O)c12 [genistein, reference compound] | – | – | – | 1.4 fold | – | – | 1.4 fold | – | – | BMSC donors that did not respond to treatment (BMSCs [3]; 6 donors, 1 μM): 2 of the 6; cytotoxicity of BMSCs by bright field microscopy, compared to vehicle (BMSCs [3]): did not demonstrate enhanced cytotoxicity; ASC donors that did not respond to treatment (ASCs; 6 donors, 1 μM): 3 of the 6; cytotoxicity of ASCs by bright field microscopy, compared to vehicle (ASCs): did not demonstrate enhanced cytotoxicity; osteogenic differentiation of MSCs, fold relative to vehicle treated MSCs [1, 6]: 1.6±0.19 fold; osteogenic differentiation of MSCs, fold relative to vehicle treated MSCs [1, 7]: 1.7±0.02 fold; osteogenic differentiation of MSCs, fold relative to vehicle treated MSCs [1, 8]: 1.0±0.15 fold
8 | 176 to 180 °C | CC1(C)CCc2c(ccc3c2OCC(c2ccc(O)cc2)C3=O)O1 (centres unmarked) [compound 4, 3-(4-Hydroxyphenyl)-8,8-dimethyl-2,3,9,10-tetrahydropyrano[2,3-f]chromen-4(8H)-one] | modest potential | – | – | – | – | – | – | – | – | –
9 | – | O=c1c(-c2ccc(O)cc2)coc2cc(O)ccc12 [daidzein, Daidzein] | – | 1.0 fold | 1.7 fold | 1.5 fold | 1.0 fold | 1.5 fold | 1.7 fold | low inducers | – | cytotoxicity of BMSCs by bright field microscopy, compared to vehicle (BMSCs [3]): did not demonstrate enhanced cytotoxicity; cytotoxicity of ASCs by bright field microscopy, compared to vehicle (ASCs): did not demonstrate enhanced cytotoxicity; osteogenic differentiation of MSCs, fold relative to vehicle treated MSCs [1, 6]: 1.7±0.19 fold; osteogenic differentiation of MSCs, fold relative to vehicle treated MSCs [1, 7]: 1.7±0.01 fold; osteogenic differentiation of MSCs, fold relative to vehicle treated MSCs [1, 8]: 1.6±0.15 fold; osteogenic differentiation relative to vehicle treated MSCs in ODM [1, 5]: 1.7±0.3 fold
10 | – | O=c1c(-c2ccc(O)cc2)coc2cc(OCCN3CCCC3)ccc12 [2j, 3-(4-Hydroxyphenyl)-7-(2-(pyrrolidin-1-yl)ethoxy)-4H-chromen-4-one] | no osteogenic effect | – | – | – | – | – | – | – | – | –
